Reference: US8846627B2, “Method for treatment of malaria” (The Second Military Medical University, priority 2009, dated 2014)

What was measured:
[1] = biological target: T1, Falcipain-2 protease (FP-2) (Plasmodium falciparum, UniProt Q8I6U4); assay: Falcipain-2 protease inhibition assay (fluorescence reaction rate); format: biochemical
T1 construct: The falcipain-2 fragment was amplified by the polymerase chain reaction (PCR); His6 (N-terminal MRGS-His6 supplied by the pQE-30 vector; own knowledge of the vector, consistent with the Ni2+-NTA purification) (N); made in house; host or cells: E. coli M15
T1 sequence (Q8I6U4 244-484): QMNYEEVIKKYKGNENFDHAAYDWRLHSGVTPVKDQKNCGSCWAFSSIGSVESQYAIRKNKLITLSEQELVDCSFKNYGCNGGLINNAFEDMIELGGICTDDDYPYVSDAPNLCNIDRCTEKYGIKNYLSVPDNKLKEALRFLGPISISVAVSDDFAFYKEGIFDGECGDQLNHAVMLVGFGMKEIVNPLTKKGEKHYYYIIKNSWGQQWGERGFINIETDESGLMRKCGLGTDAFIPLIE
Method: (1) Expression and Purification of Falcipain-2 and Refolding of FP-2 Inclusion Bodies Protein
(2) The Determination of the Invention Compounds' Inhibitory Activity Against FP-2
FP-2 protein and test compounds dissolved in DMSO (prepared from EXAMPLES 1-4) were added to 197 μL, buffer, containing 100 mM NaOAc, 10 mM DTT, pH 5.5 (final concentration 10 μg/mL). The test compound were Stenopalustroside A, Stenopalustroside D, Tiliroside, kaempferol 3-O-β-(6″-caffeoylglucoside) and kaempferol 3-(2,4-di-E-p-coumaroyl-rhamnoside), respectively, which final concentration were 10 μM and 0 μM (as negative control). These compounds were incubated for […] and employed MD SpectraMax M5 Microplate Reader to continuous detect the RFU for 15 min, at excitation 355 nm and emission 460 nm Calculate the reaction rate Km, and obtain percentage inhibitory rate of the test compound at 10 μM by the following equation,
The equation is: (Kmof control group−Kmof experimental group)/Kmof control group×100%
Select […] compounds with over 50% inhibitory rate to detect IC50, and utilize the compound solutions prepared from EXAMPLE 1 to EXAMPLE 4, Stenopalustroside A, tiliroside kaempferol 3-O-β-(6″-caffeoylglucoside), and the experimental methods and system followed as EXAMPLE 6. According to FP-2 activity reaction rate Km with compounds at different concentrations, we can calculate the inhibitory rate of compounds against FP-2 at different concentration. The IC50 value was fitted with utilizing the Sigmoidal Equation by Origin software.

[2] = test system: chloroquine-resistant (W2) strain of P. falciparum; assay: In vitro anti-malarial activity assay (plasmodial LDH activity), W2 clone; format: cell-based; conditions: Plasmodium falciparum, W2; 72 h incubation, LDH readout; read-out: P. falciparum (W2 Clone) IC50
Method: In vitro anti-malarial activity of the representative compounds was determined against chloroquine sensitive (D6) and chloroquine-resistant (W2) strains of P. falciparum.
The anti-malarial activity was determined by measuring plasmodial LDH activity as described earlier (Jain, M.; Khan, S. I.; Tekwani, B. L.; Jacob, M. R.; Singh, S.; Singh, P. P.; Jain, R. Synthesis, anti-malarial, antileishmanial, and antimicrobial activities of some 8-quinolinamine analogues. Bioorg. Med. Chem. 2005, 13, 4458-4466). A suspension of red blood cells infected with D6 or W2 strains of P. falciparum (200 with 2% parasitemia and 2% hematocrit in RPMI 1640 medium supplemented with 10% human serum and 60 µg/mL Amikacin) was added to the wells of a 96-well plate containing 10 μL of serially diluted test samples. The plate was flushed with a gas mixture of 90% N2, 5% O2, and 5% CO2 and incubated at 37° C. for 72 h in a modular incubation chamber (Billups-Rothenberg, Calif.). Parasitic LDH activity was determined by using Malstat™ reagent (Flow Inc., Portland, Oreg.) according to the procedure of Makler and Hinrichs (M. T. Makler and D. J. Hinrichs, Measurement of the lactate dehydrogenase activity of Plasmodium falciparum as an assessment of parasitemia. J. Am. J. Trop. Med. Hyg. 1993, 48(2):205-210). Briefly, 20 μl, of the incubation mixture was mixed with 100 μL of the Malstat™ reagent and incubated at room temperature for 30 min Twenty microliters of a 1:1 mixture of NBT/PES (Sigma, St. Louis, Mo.) was then added and the plate was further incubated in the dark for 1 h. The reaction was then stopped by the addition of 100 μL of a 5% acetic acid solution. The plate was read at 650 nm. Artemisinin and chloroquine were included in each assay as the drug controls. IC50 values were computed from the dose-response curves. To determine the selectivity index of anti-malarial activity of compounds, their cytotoxicity in vitro to mammalian cells was also determined. The assay was performed in 96-well tissue culture-treated plates as described earlier (J. Mustafa, S. I. Khan, G. Ma, L. A. Walker and I. A. Khan, Synthesis and Anticancer Activities of Fatty Acid Analogs of Podophyllotoxin. Lipids. 2004, 39(2):167-172). Vero cells (monkey kidney fibroblasts) were seeded to the wells of 96-well plate at a density of 25,000 cells/well and incubated for 24 h. Samples at different concentrations were added and plates were again incubated for 48 h. The number of viable cells was determined by Neutral Red assay. IC50 values were obtained from dose-response curves. Doxorubicin was used as a positive control.

In the case of O=C(/C=C/c1ccc(O)cc1)OC[C@H]1O[C@@H](Oc2c(-c3ccc(O)cc3)oc3cc(O)cc(O)c3c2=O)[C@H](O)[C@@H](O)[C@@H]1O [Tiliroside], the IC50 [1] is reported as 13.1 µM, the inhibition at 10 µM ([1]; 10 μM compound, pH 5.5) is reported as 64.4% and the IC50 [2] is reported as 106 µM.
